In patent publication US20120041009A1, “PYRIMIDINE COMPOUND AND ITS USE IN PEST CONTROL” (SUMITOMO CHEMICAL COMPANY, LIMITED, priority 2009, published 2012):

System: Tetranychus urticae
Test: Test Example 2: spray test against Tetranychus urticae on brush bean (Phaseolus vulgaris)
Format: in vivo
Details: comparative compound, same conditions as in Test Example 2 (500 ppm); day not given
Procedure: The formulation of each of the present compounds (1), (3), (5), (7) to (11), (13), (14), (18), (20), (22), (24), (26), (27), (29), (30) and (33) to (35) obtained in Formulation Example 1 was diluted with water so as to adjust the concentration of the active ingredient to 500 ppm to prepare a test spray solution.
About sixty female imagines of Tetranychus urticae were released on brush bean (Phaseolus vulgaris) in the primary leaf stage, which had been potted in a polyethylene cup for 7 days after the seeding. One day after release of female imagines of Tetranychus urticae, 30 ml (per cup) of the test spray solution was sprayed over the brush bean seedling.
On the 8th and 13th day after spraying, the numbers of survival Tetranychus urticae on the leaf of the brush bean plant were examined, and the control rate was calculated by the following equation.
Control rate=100×{1−(number of survival Tetranychus urticae in treated section)/(number of survival Tetranychus urticae in non-treated section)}

O=c1[nH]c(-c2cncnc2C(F)(F)F)no1 [comparative compound (C)]
control value: less than 30%
